Source: patent publication US10238623B2, “C14-hydroxyl esterified amino acid derivative of triptolide, and preparation method and use thereof” (HANGZHOU WEBEN PHARMACEUTICALS INC, priority 2015, dated 2019)

Legend:
Jurkat = assay: MTT growth inhibition, Jurkat cells, 72 h; format: cell-based, human
Procedure: (§1) 5000 well-grown leukemia cells or normal human blood cells were taken and seeded into wells of a 96-well cell culture plate. The medium was 1640 cell medium containing 10% fetal bovine serum. 14-D-Valine-TPL with different concentrations was added, and after being uniformly mixed, the plate was placed in a carbon dioxide (5% CO2) cell incubator, and incubated at 37° C. for 72 hours. The concentration of live cells was then determined using the MTT assay. In this experiment, the cell viability in the control group (without the compound treatment) was set to be 100%, and the cell viability (%) after the action of the compound the half maximal growth inhibitory concentration of leukemia cells at 72 hours (IC50 value at 72 hours) and the therapeutic window index were calculated. Therapeutic window index=IC50 value of normal blood cells/IC50 value of leukemia cells. […] A larger therapeutic window indicates a better selectivity of the compound for tumor cells.
(§2) 5000 well-grown leukemia cells were taken and seeded into wells of a 96-well cell culture plate. The medium was 1640 cell medium containing 10% fetal bovine serum. 14-D-Valine-TPL with different concentrations was added, and after being uniformly mixed, the plate was placed in a carbon dioxide (5% CO2) cell incubator, and incubated at 37° C. for 72 hours. The concentration of live cells was then determined using the MTT assay. In this experiment, the cell viability in the control group (without the compound treatment) was set to be 100%, and the cell viability (%) after the action of the compound and the half maximal growth inhibitory concentration of leukemia cells at 72 hours (IC50 value at 72 hours) were calculated.
as §2, with “well-grown lymphocytes” for “well-grown leukemia cells”

CEM = assay: MTT growth inhibition, CEM cells, 72 h; format: cell-based, human
Procedure: as §1, §2
as §2, with “well-grown lymphocytes” for “well-grown leukemia cells”

Molt-4 = assay: MTT growth inhibition, Molt-4 cells, 72 h; format: cell-based, human; details: for Therapeutic window: IC50 of normal blood cells/IC50 of Molt-4
Procedure: as §1, §2
as §2, with “well-grown lymphocytes” for “well-grown leukemia cells”

Sup-B15 = assay: MTT growth inhibition, Sup-B15 cells, 72 h; format: cell-based, human
Procedure: as §1, §2
as §2, with “well-grown lymphocytes” for “well-grown leukemia cells”

normal human blood cells = assay: MTT assay, normal human blood cells, 72 h; format: cell-based; details: Homo sapiens, 72 h, Normal Blood Cell, Overall, MTT, read-out: IC50
Procedure: Leukemia cell strains: Sup-B15 (Ph+acute lymphoblastic leukemia), CEM (acute lymphoblastic leukemia, ALL), and Molt-4 (acute lymphoblastic leukemia, ALL). Normal blood cell samples: peripheral blood from healthy volunteers. • Primary reagent: 14-D-Valine-TPL of the invention. Primary instruments: cell incubator and microplate reader. (2) Experimental Method
as §1

human leukemia = human leukemia (18/45); cited from earlier work
L615 leukemia = details: mouse, in vivo; cited from earlier work
[1] = oral and intravenous injection; cited from earlier work

SMILES: CC(C)[C@]12O[C@H]1[C@@H]1O[C@]13[C@]1(O[C@H]1C[C@H]1C4=C(CC[C@@]13C)C(=O)OC4)[C@@H]2O [TPL, Triptolide]
- IC50 (Jurkat; Homo sapiens, Jurkat, MTT, 72 hours, read-out: IC50): 33.8 nM
- Therapeutic window (Jurkat; IC50 of normal blood cells/IC50 of Jurkat): 0.64
- IC50 (CEM; Homo sapiens, CCRF-CEM, CEM, MTT, 72 hours, read-out: IC50): 23.3 nM
- Therapeutic window (CEM; IC50 of normal blood cells/IC50 of CEM): 0.93
- IC50 (Molt-4; Homo sapiens, Molt-4, MTT, 72 hours, read-out: IC50): 10.7 nM
- Therapeutic window (Molt-4): 2.03
- Therapeutic window (Molt-4; listed as triptolide): 2.0
- IC50 (Sup-B15; Homo sapiens, Sup-B15, MTT, 72 hours, read-out: IC50): 23.2 nM
- Therapeutic window (Sup-B15; IC50 of normal blood cells/IC50 of Sup-B15): 0.94
- IC50 (normal human blood cells): 21.7 nM
- complete remission rate (human leukemia): up to 40%
- survival time of L615 leukemia mice (L615 leukemia): significantly prolong the survival time
- elimination half-life (in words) [1]: short elimination half-life
